Test results: ChEMBL document CHEMBL3797176, “Identification of selenocompounds with promising properties to reverse cancer multidrug resistance” (Bioorg Med Chem Lett, 2016)

Experiments:
[1] = test system: L5178Y; assay: Induction of apoptosis in mouse L5178Y cells assessed as late apoptosis/necrosis at 20 uM after 1 hr by Annexin V-FITC/propidium iodide staining-based flow cytometry (reference value: 0.859%); format: functional
[2] = test system: L5178Y; assay: Induction of apoptosis in mouse L5178Y cells assessed as early apoptosis at 20 uM after 1 hr by Annexin V-FITC/propidium iodide staining-based flow cytometry (reference value: 3.96%); format: functional
[3] = test system: L5178Y; assay: Induction of apoptosis in multi-drug resistant mouse L5178Y cells transfected with human MDR1 assessed as cell death at 20 uM after 1 hr by Annexin V-FITC/propidium iodide staining-based flow cytometry (reference value: 0.09%); format: functional
[4] = test system: L5178Y; assay: Induction of apoptosis in multi-drug resistant mouse L5178Y cells transfected with human MDR1 assessed as late apoptosis/necrosis at 20 uM after 1 hr by Annexin V-FITC/propidium iodide staining-based flow cytometry (reference value: 2.28%); format: functional
[5] = test system: L5178Y; assay: Induction of apoptosis in mouse L5178Y cells assessed as cell death at 20 uM after 1 hr by Annexin V-FITC/propidium iodide staining-based flow cytometry (reference value: 0.191%); format: functional
[6] = test system: L5178Y; assay: Induction of apoptosis in multi-drug resistant mouse L5178Y cells transfected with human MDR1 assessed as early apoptosis at 20 uM after 1 hr by Annexin V-FITC/propidium iodide staining-based flow cytometry (reference value: 6.46%); format: functional
[7] = test system: L5178Y; assay: Induction of apoptosis in mouse L5178Y cells assessed as late apoptosis/necrosis at 2 uM after 1 hr by Annexin V-FITC/propidium iodide staining-based flow cytometry (reference value: 0.859%); format: functional
[8] = test system: L5178Y; assay: Cytotoxicity against multi-drug resistant mouse L5178Y cells assessed as growth inhibition after 72 hrs by MTT assay; format: functional, cell-based
[9] = test system: L5178Y; assay: Induction of apoptosis in mouse L5178Y cells assessed as early apoptosis at 2 uM after 1 hr by Annexin V-FITC/propidium iodide staining-based flow cytometry (reference value: 3.96%); format: functional
[10] = test system: L5178Y; assay: Induction of apoptosis in mouse L5178Y cells assessed as cell death at 2 uM after 1 hr by Annexin V-FITC/propidium iodide staining-based flow cytometry (reference value: 0.191%); format: functional
[11] = test system: L5178Y; assay: Induction of apoptosis in multi-drug resistant mouse L5178Y cells transfected with human MDR1 assessed as cell death at 2 uM after 1 hr by Annexin V-FITC/propidium iodide staining-based flow cytometry (reference value: 0.09%); format: functional
[12] = target: T1, ATP-dependent translocase ABCB1 (Homo sapiens, UniProt P08183); assay: Inhibition of human MDR1 transfected in multi-drug resistant mouse L5178Y cells assessed as fluorescence activity ratio at 2 uM incubated for 10 mins by rhodamine 123 accumulation assay; format: cell-based
[13] = test system: L5178Y; assay: Induction of apoptosis in multi-drug resistant mouse L5178Y cells transfected with human MDR1 assessed as late apoptosis/necrosis at 2 uM after 1 hr by Annexin V-FITC/propidium iodide staining-based flow cytometry (reference value: 2.28%); format: functional
[14] = test system: L5178Y; assay: Cytotoxicity against mouse L5178Y cells assessed as growth inhibition after 72 hrs by MTT assay; format: functional, cell-based
[15] = target: T1, ATP-dependent translocase ABCB1; assay: Inhibition of human MDR1 transfected in multi-drug resistant mouse L5178Y cells assessed as fluorescence activity ratio quotient at 20 uM incubated for 10 mins by rhodamine 123 accumulation assay relative to verapamil; format: cell-based; set-up: scale not given: the % may be the effect or the level left
[16] = target: T1, ATP-dependent translocase ABCB1; assay: Inhibition of human MDR1 transfected in multi-drug resistant mouse L5178Y cells assessed as fluorescence activity ratio at 20 uM incubated for 10 mins by rhodamine 123 accumulation assay; format: cell-based
[17] = target: T1, ATP-dependent translocase ABCB1; assay: Inhibition of human MDR1 transfected in multi-drug resistant mouse L5178Y cells assessed as fluorescence activity ratio quotient at 2 uM incubated for 10 mins by rhodamine 123 accumulation assay relative to verapamil; format: cell-based; set-up: scale not given: the % may be the effect or the level left
[18] = test system: L5178Y; assay: Induction of apoptosis in multi-drug resistant mouse L5178Y cells transfected with human MDR1 assessed as early apoptosis at 2 uM after 1 hr by Annexin V-FITC/propidium iodide staining-based flow cytometry (reference value: 6.46%); format: functional
[19] = target: T1, ATP-dependent translocase ABCB1; assay: Inhibition of human MDR1 transfected in multi-drug resistant mouse L5178Y cells at 20 uM incubated for 10 mins by rhodamine 123 accumulation assay relative to verapamil; format: cell-based
[20] = target: T1, ATP-dependent translocase ABCB1; assay: Inhibition of human MDR1 transfected in multi-drug resistant mouse L5178Y cells at 2 uM incubated for 10 mins by rhodamine 123 accumulation assay relative to verapamil; format: cell-based
[21] = test system: L5178Y; assay: Ratio of induction of apoptosis in mouse L5178Y cells to multi-drug resistant mouse L5178Y cells transfected with human MDR1; format: functional

T1 sequence (P08183 whole entry): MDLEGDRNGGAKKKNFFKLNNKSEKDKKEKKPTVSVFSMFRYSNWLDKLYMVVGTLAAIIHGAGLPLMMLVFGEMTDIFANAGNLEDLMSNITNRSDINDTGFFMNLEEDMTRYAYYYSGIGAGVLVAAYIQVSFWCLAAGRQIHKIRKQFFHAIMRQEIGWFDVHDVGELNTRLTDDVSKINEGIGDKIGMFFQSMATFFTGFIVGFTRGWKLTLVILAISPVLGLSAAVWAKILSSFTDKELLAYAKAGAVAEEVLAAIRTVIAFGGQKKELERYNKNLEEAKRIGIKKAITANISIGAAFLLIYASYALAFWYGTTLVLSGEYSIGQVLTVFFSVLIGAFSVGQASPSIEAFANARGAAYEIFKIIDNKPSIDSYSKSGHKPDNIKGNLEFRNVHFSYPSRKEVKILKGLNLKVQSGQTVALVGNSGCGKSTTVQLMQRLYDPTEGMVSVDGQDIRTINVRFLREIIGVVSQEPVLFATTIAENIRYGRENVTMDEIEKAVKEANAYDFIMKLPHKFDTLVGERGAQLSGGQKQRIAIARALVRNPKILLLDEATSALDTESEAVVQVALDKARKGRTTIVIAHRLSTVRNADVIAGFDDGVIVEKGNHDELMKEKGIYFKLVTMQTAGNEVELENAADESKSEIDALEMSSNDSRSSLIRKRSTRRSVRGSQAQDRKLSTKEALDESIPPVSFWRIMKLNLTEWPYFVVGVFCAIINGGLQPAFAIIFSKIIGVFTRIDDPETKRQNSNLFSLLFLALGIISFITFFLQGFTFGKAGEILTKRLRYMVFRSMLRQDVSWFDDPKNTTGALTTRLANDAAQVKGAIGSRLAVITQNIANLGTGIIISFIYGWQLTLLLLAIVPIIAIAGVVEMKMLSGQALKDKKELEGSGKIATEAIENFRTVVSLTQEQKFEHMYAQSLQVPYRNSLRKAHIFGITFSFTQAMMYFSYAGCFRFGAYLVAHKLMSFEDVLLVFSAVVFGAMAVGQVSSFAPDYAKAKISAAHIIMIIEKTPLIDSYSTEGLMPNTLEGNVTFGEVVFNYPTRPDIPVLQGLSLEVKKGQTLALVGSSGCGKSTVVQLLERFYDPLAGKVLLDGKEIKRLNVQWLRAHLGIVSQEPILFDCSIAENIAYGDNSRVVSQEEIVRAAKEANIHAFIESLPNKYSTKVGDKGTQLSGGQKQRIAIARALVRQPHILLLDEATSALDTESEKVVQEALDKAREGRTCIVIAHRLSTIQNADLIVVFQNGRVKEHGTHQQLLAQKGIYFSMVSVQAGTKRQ

| SMILES | Activity [7] [%] | IC50 [8] [µM] | Activity [9] [%] | Activity [10] [%] | Activity [11] [%] | Ratio [12] | Activity [13] [%] | IC50 [14] [µM] | Activity [15] [%] | Ratio [16] | Activity [17] [%] | Activity [18] [%] | fold change (FC) [19] | further results |
| --- | --- | --- | --- | --- | --- | --- | --- | --- | --- | --- | --- | --- | --- | --- |
| c1ccc2c(c1)Nc1c(ccc3ccccc13)S2 | – | – | – | – | – | – | – | – | – | – | – | – | – | Activity [1]: 5.58%; Activity [2]: 51.2%; Activity [3]: 0.12%; Activity [4]: 45.7%; Activity [5]: 0.279%; Activity [6]: 47.9% |
| COC(=O)C[Se]C(=O)c1ccc(Cl)cc1 | 2.52 | 87.8 | 5.09 | 0.497 | 0.03 | 6.45 | 1.47 | > 100 | 23.54 | 8.53 | 30.28 | 2.69 | – | – |
| O=C1[Se]C(=O)c2ccccc21 | 53.9 | 4.65 | 31.5 | 0.767 | 0.47 | 43.14 | 45 | 3.97 | 356.2 | 97.61 | 157.4 | 32.2 | 1.7 | fold change (FC) [20]: 1.6 |
| C[Se]C(=O)c1cccc(C(=O)[Se]C)n1 | 7.18 | 16.9 | 5.97 | 0.202 | 0.24 | 1.13 | 3.28 | 19.5 | 5.44 | 1.49 | 3.98 | 5.38 | – | – |
| COc1cc(OC)cc(C(=O)[Se]CC(=O)C(C)(C)C)c1 | 66.6 | 0.97 | 15.7 | 0.167 | 0.51 | 12.56 | 30.5 | 1.31 | 169.16 | 46.35 | 45.84 | 16.6 | 1.7 | Ratio [21]: 2 |
| O=C(C[Se]C(=O)c1ccccc1)Oc1ccccc1 | 2.11 | > 100 | 3 | 0.24 | 0.16 | 0.65 | 2.26 | > 100 | 2.37 | 5.68 | 3.05 | 3.9 | – | – |
| C[Se]C(=O)c1ccc(C(=O)[Se]C)s1 | 6.93 | > 100 | 6.64 | 0.352 | 0.3 | 0.99 | 2.34 | > 100 | 3.19 | 1.07 | 3.61 | 5.07 | – | – |
| NC(=O)C[Se]C(=O)c1ccccc1 | 2.24 | 36.4 | 2.46 | 0.081 | 0.33 | 1.02 | 2.91 | > 100 | 3.72 | 1.05 | 3.04 | 3.01 | – | – |
| CC(=O)C[Se]C(=O)c1ccc(Cl)cc1 | 52.7 | 1.03 | 30.8 | 0.874 | 7.66 | 94.2 | 85.8 | 0.78 | 308.91 | 84.64 | 343.79 | 3.86 | 1.7 | fold change (FC) [20]: 1.6 |
| C[Se]C(=O)c1ccc(C(=O)[Se]C)cc1 | 2.01 | > 100 | 3.61 | 0.11 | 0.37 | 3.97 | 3.25 | > 100 | 14.49 | 3.09 | 18.64 | 3.01 | – | – |
| C[Se]C(=O)c1cccc(C(=O)[Se]C)c1 | 3.79 | > 100 | 4.47 | 0.076 | 0.45 | 0.93 | 2.8 | > 100 | 3.39 | 0.98 | 2.78 | 4.35 | – | – |
| CC(C)(C)C(=O)C[Se]C(=O)c1ccc(Cl)cc1 | 56.1 | 0.43 | 36.1 | 0.255 | 1.21 | 9.28 | 21.9 | 0.94 | 177.63 | 48.67 | 33.87 | 15.9 | 1.7 | Ratio [21]: 2 |
| CSc1ccc2c(c1)N(CCC1CCCCN1C)c1ccccc1S2 (stereo not drawn) [THIORIDAZINE] | – | 7.43 | – | – | – | – | – | 12.7 | – | – | – | – | – | – |
